Data from US20240415921A1, “METHODS OF TREATING CANCER BY TARGETING TUMOR-ASSOCIATED MACROPHAGES” (ENDOCYTE, INC., priority 2014, published 2024).

Tested on: 4T1 TAMs
Test: Activity against 4T1 TAMs in-vivo (FACS of harvested tumors)
Parameters: species or system nude rats
Details: single i.v. dose (Example 1 100 nmol/kg; EC0923 alone 50 μmol/kg), tumors harvested four days later
Text: EXAMPLE 4. Example 1 activity against 4T1 TAMs in-vivo. As a proof-of-concept study, female Foxn1^nu nude rats (Harlan, Inc., Indianapolis, IN) on a folate-deficient diet are subcutaneously implanted with 1×10^6 4T1 tumor cells in the left and right mammary regions (2 tumors per animal). When the tumors reach about 900-1000 mm^3, the animals are intravenously dosed with (i) PBS (n=1), (ii) 100 nmol/kg of the folic acid-releasable linker-drug conjugate, such as Example1 (n=1), (iii) 100 nmol/kg of Example1 plus 50 μmol/kg of EC0923 (n=1), or (iv) 50 μmol/kg of EC0923 (n=1). Four days later, the tumors are harvested, enzymatically digested, and subjected to FACS analysis. The tumor cell suspensions are stained for macrophage markers (CD163 and/or CD11b), cell viability (propidium iodide), and late and early apoptosis (Annexin V).
EXAMPLE 13. Preparation of 4T1 xenograft tumors from nude rats and MDA-MB-231 tumors isolated from nude mice and A549 tumors isolated from nude mice. Each tumor is minced and placed into 20 mL of RPMI1640 (serum free) containing 0.5 mg/mL Collagenase IV, 0.05 mg/mL hyaluronidase, and 0.1 mg/mL DNaseI and placed in a shaker at 200 rpm for 1 hr at 37° C. […]

In the case of `Nc1nc2ncc(CNc3ccc(C(=O)N[C@@H](CCC(=O)N[C@H](CC(=O)O)C(=O)N[C@H](CC(=O)O)C(=O)O)C(=O)O)cc3)nc2c(=O)[nH]1` [EC0923, pteroyl-[…]Glu-D-Asp-D-Asp], the “viable CD163(+) CD11b(+) TAM population in 4T1 tumors” value is reported as “does not have any effect”.
